Laboratory results reported in ChEMBL document CHEMBL1649074, “Aurora kinase inhibitors based on the imidazo[1,2-a]pyrazine core: fluorine and deuterium incorporation improve oral absorption and exposure” (J Med Chem, 2011).
Blank lines part the entries; values can stand above or below the compound they belong to.

Experiments:
[1] = (§1) Oral bioavailability in Beagle dog at 10 mg/kg; assay type: ADME, organism-based, Canis lupus familiaris; details: beagle, in vivo
[2] = Clearance in Beagle dog at 0.3 mg/kg, iv; assay type: ADME, organism-based, Canis lupus familiaris; design: dose 0.3 mg/kg, route intravenous; details: in vivo
[3] = AUC (0 to 24 hrs) in Beagle dog at 0.3 mg/kg, iv; assay type: ADME, organism-based, Canis lupus familiaris; design: time < 24 hr, dose 0.3 mg/kg, route intravenous; details: plasma
[4] = AUC (0 to 24 hrs) in cynomolgus monkey at 0.3 mg/kg, iv; assay type: ADME, organism-based, Macaca fascicularis; design: time < 24 hr, dose 0.3 mg/kg, route intravenous; details: plasma
[5] = AUC in CD1 mouse at 50 mg/kg, po; assay type: ADME, organism-based; design: dose 50 mg/kg, route oral; details: plasma
[6] = Oral bioavailability in cynomolgus monkey at 10 mg/kg; assay type: ADME, organism-based, Macaca fascicularis; details: in vivo
Canis familiaris [7] = experiment: as §1; assay type: ADME, organism-based, Canis lupus familiaris; details: in vivo
[8] = Clearance in cynomolgus monkey at 1 mg/kg, iv; assay type: ADME, organism-based, Macaca fascicularis; design: dose 1 mg/kg, route intravenous; details: in vivo
Mus musculus = experiment: Inhibition of Aurora B-mediated histone H3 phosphorylation in nude mouse xenografted with human A2780 cells at 100 mg/kg, po administered as single dose measured 2 hrs; assay type: functional; details: A2780, 2 h
Canis familiaris [9] = experiment: AUC (0 to 24 hrs) in Beagle dog at 1 mg/kg, iv; assay type: ADME, organism-based, Canis lupus familiaris, Plasma; design: time < 24 hr, dose 1 mg/kg, route intravenous; details: in vivo
[10] = molecular target: Tyrosine-protein kinase JAK2 (Homo sapiens, UniProt O60674); experiment: Inhibition of JAK2
Sequence of Tyrosine-protein kinase JAK2 (O60674 whole entry): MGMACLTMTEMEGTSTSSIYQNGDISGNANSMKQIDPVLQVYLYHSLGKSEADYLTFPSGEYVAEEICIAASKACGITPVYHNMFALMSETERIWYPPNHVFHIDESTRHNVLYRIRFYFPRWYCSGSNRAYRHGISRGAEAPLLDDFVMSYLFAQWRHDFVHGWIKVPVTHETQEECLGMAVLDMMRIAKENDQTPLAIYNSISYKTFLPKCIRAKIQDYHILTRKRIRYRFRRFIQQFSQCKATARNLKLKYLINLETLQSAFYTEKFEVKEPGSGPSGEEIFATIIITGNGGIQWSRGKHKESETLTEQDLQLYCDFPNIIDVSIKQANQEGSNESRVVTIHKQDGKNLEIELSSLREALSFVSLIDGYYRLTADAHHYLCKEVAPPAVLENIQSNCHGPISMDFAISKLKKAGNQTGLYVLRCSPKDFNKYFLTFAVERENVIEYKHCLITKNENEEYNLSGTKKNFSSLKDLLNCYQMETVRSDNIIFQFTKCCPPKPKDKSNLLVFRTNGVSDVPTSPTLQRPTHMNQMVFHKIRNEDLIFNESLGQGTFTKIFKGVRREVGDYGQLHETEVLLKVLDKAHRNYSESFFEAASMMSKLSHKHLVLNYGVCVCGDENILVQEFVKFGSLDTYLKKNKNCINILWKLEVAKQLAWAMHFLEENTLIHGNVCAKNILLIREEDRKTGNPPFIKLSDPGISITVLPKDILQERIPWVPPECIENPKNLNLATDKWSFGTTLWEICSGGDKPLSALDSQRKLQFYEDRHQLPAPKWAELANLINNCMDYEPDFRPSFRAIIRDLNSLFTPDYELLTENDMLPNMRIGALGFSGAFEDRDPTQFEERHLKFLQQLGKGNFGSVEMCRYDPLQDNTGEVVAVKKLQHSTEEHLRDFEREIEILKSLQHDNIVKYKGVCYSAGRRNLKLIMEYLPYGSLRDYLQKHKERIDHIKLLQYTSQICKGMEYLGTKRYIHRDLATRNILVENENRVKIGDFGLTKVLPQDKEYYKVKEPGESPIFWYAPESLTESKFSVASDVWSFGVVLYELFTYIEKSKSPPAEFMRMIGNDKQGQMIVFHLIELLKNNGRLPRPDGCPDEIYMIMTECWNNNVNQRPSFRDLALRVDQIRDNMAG

[11] = molecular target: Tyrosine-protein kinase Lck (Homo sapiens, UniProt P06239); experiment: Inhibition of LCK
Sequence of Tyrosine-protein kinase Lck (P06239 whole entry): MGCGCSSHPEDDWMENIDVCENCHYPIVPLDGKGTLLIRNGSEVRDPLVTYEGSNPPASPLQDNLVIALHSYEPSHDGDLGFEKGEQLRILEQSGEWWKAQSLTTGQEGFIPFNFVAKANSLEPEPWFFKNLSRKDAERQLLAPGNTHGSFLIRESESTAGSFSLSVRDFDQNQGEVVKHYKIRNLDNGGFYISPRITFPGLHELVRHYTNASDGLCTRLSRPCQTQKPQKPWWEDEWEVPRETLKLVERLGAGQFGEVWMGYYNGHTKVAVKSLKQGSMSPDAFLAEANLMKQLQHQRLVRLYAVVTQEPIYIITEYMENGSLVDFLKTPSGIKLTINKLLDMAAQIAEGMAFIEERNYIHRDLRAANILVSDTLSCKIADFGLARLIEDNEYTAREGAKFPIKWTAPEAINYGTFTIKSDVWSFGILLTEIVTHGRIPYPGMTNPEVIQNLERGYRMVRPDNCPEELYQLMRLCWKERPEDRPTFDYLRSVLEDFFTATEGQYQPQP

bioavailability [1]: 20% | clearance [2]: 31 mL/min/kg | AUC(0-t) at 24 h [3]: 0.4 µM·h | AUC(0-t) at 24 h [4]: 0.7 µM·h | AUC [5]: 9.4 µM·h | bioavailability [6]: 2%
Compound: Cc1cn2c(-c3cn[nH]c3)cnc2c(Nc2cc(CN3CCC(F)(F)C3)ns2)n1.Cl

F (Canis familiaris [7]): 33% | clearance [8]: 4.2 mL/min/kg | AUC (Canis familiaris [9]): 9 µM·h
Compound: Cl.[2H]C([2H])(c1cc(Nc2nc(C)cn3c(-c4cn[nH]c4)cnc23)sn1)N1CCC(F)(F)C1
inhibition in vivo at 100 mg/kg (Mus musculus): 83%

IC50 [10]: > 100 nM | IC50 [11]: < 1 nM
Compound: CCN(Cc1cc(Nc2nc(C)cn3c(-c4cn[nH]c4)cnc23)sn1)C(C)(C)CO
